# Laboratory results as given in US8431593B2, “Heteroaryl amide derivatives” (H. Lundbeck A/S, priority 2006, dated 2013).
# Read-outs that look alike come from different tables or passages of the source.
# Target: T1, P2X7 receptor (Homo sapiens, UniProt Q99572)
# T1 construct: host or cells: SH-SY5Y
# T1 sequence (Q99572 1-595): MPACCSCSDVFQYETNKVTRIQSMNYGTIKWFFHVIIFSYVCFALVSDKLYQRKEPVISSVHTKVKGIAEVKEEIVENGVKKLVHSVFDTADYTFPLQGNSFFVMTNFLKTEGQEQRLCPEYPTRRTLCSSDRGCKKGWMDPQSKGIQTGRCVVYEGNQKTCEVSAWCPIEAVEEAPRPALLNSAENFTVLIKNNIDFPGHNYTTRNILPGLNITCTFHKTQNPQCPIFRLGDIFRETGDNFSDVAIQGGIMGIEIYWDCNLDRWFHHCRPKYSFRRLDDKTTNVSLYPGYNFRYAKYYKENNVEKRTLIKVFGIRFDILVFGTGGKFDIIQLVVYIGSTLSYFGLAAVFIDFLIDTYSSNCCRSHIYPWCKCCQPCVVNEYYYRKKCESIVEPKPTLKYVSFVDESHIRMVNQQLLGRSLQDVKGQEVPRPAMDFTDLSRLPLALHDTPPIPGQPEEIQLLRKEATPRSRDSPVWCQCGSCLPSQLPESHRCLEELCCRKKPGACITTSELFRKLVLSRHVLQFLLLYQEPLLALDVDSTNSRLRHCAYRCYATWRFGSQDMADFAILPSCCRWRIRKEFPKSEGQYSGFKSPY
# Test: P2X7 calcium mobilization assay, high throughput, antagonist activity (Example 4A)
# Assay type: cell-based
# Settings: Example 4A, read-out: IC50
# Outline: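 Antagonism was measured as calcium fluorescence (FLIPR Tetra) in cells seeded one day earlier at 100,000/well, loaded with dye for 1 h and exposed to compound for 1 h at room temperature before agonist. Peak RFU, minus the no-agonist background, was referenced to the mean of the agonist wells.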
# [1] = fluorescence response of cells exposed to 80 μM 2′(3′)-O-(4-benzoyl-benzoyl)adenosine 5′-triphosphate
# [2] = 50% decrease in the fluorescence response of cells exposed to 80 μM 2′(3′)-O-(4-benzoyl-benzoyl)adenosine 5′-triphosphate
SMILES,IC50 [1] [nM],IC50 [2] [nM]
"CN(CCO)C(=O)c1cn2c(NC(=O)CC34CC5CC(CC(C5)C3)C4)cccc2n1 [Compound 405, 5-[(adamantan-1-ylacetyl)amino]-N-(2-hydroxyethyl)-N-methylimidazo[1,2-a]pyridine-2-carboxamide]",< 2000,–
"O=C(CC12CC3CC(CC(C3)C1)C2)Nc1cccc2nc(C(=O)N(CCO)C3CCCCC3)cn12 [Compound 407, 5-[(adamantan-1-ylacetyl)amino]-N-cyclohexyl-N-(2-hydroxyethyl)imidazo [1,2-a]pyridine-2-carboxamide]",< 2000,–
"CC(=O)NC1CCN(C(=O)c2cn3c(NC(=O)CC45CC6CC(CC(C6)C4)C5)cccc3n2)CC1 [Compound 408, N-{2-[(4-acetamidopiperidin-1-yl)carbonyl]imidazo[1,2-a]pyridin-5-yl}-2-adamantan-1-ylacetamide]",< 2000,–
"CCCC(=O)NC1CCN(C(=O)c2cn3c(NC(=O)CC45CC6CC(CC(C6)C4)C5)cccc3n2)CC1 [Compound 409, N-[1-({5-[(adamantan-1-ylacetyl)amino]imidazo[1,2-a]pyridin-2-yl}carbonyl)piperidin-4-yl]butanamide]",< 2000,–
"CCCCCN(CCO)C(=O)c1cn2c(NC(=O)CC34CC5CC(CC(C5)C3)C4)cccc2n1 [Compound 410, 5-[(adamantan-1-ylacetyl)amino]-N-(2-hydroxyethyl)-N-pentylimidazo[1,2-a]pyridine-2-carboxamide]",< 2000,–
"CC(C)(C)NCCOC(=O)c1cn2c(NC(=O)CC34CC5CC(CC(C5)C3)C4)cccc2n1 [Compound 411, 2-(tert-butylamino)ethyl 5-[(adamantan-1-ylacetyl)amino] imidazo [1,2-a]pyridine-2-carboxylate]",< 2000,–
"CCCCN(CCO)C(=O)c1cn2c(NC(=O)CC34CC5CC(CC(C5)C3)C4)cccc2n1 [Compound 412, 5-[(adamantan-l-ylacetyl)amino]-N-butyl-N-(2-hydroxyethyl)imidazo [1,2-a]pyridine-2-carboxamide]",< 2000,–
"CC(C)N(CCO)C(=O)c1cn2c(NC(=O)CC34CC5CC(CC(C5)C3)C4)cccc2n1 [Compound 413, 5-[(adamantan-1-ylacetyl)amino]-N-(2-hydroxyethyl)-N-isopropylimidazo[1,2-a]pyridine-2-carboxamide]",< 2000,–
"CCN(CCO)C(=O)c1cn2c(NC(=O)CC34CC5CC(CC(C5)C3)C4)cccc2n1 [Compound 414, 5-[(adamantan-1-ylacetyl)amino]-N-ethyl-N-(2-hydroxyethyl)imidazo [1,2-a]pyridine-2-carboxamide]",< 2000,–
"O=C(CC12CC3CC(CC(C3)C1)C2)Nc1cccc2nc(C(=O)N3CCCCC3CO)cn12 (stereo not shown) [Compound 415, 2-adamantan-1-yl-N-(2-{[2-(hydroxymethyl)piperidin-1-yl]carbonyl}imidazo[1,2-a]pyridin-5-yl)acetamide]",< 2000,–
"CC(C)N(CCCO)C(=O)c1cn2c(NC(=O)CC34CC5CC(CC(C5)C3)C4)cccc2n1 [Compound 416, 5-[(adamantan-1-ylacetyl)amino]-N-(3-hydroxypropyl)-N-isopropylimidazo[1,2-a]pyridine-2-carboxamide]",< 2000,–
"CCN(CCCO)C(=O)c1cn2c(NC(=O)CC34CC5CC(CC(C5)C3)C4)cccc2n1 [Compound 417, 5-[(adamantan-1-ylacetyl)amino]-N-ethyl-N-(3-hydroxypropyl) imidazo [1,2-a]pyridine-2-carboxamide]",< 2000,–
"O=C(CC12CC3CC(CC(C3)C1)C2)Nc1cccc2nc(C(=O)N3CCCC(O)C3)cn12 (stereo not shown) [Compound 418, 2-adamantan-1-yl-N-{2-[(3-hydroxypiperidin-1-yl)carbonyl]imidazo [1,2-a]pyridin-5-yl}acetamide]",–,< 2000
"O=C(CC12CC3CC(CC(C3)C1)C2)Nc1cccc2nc(C(=O)N3CC[C@H](O)C3)cn12 [Compound 419, 2-adamantan-1-yl-N-(2-{[(3S)-3-hydroxypyrrolidin-1-yl]carbonyl}imidazo [1,2-a]pyridin-5-yl)acetamide]",–,< 2000
"O=C(CC12CC3CC(CC(C3)C1)C2)Nc1cccc2nc(C(=O)N3CCC(CCO)CC3)cn12 [Compound 423, 2-adamantan-1-yl-N-(2-{[4-(2-hydroxyethyl)piperidin-1-yl]carbonyl}imidazo [1,2-a]pyridin-5-yl)acetamide]",–,< 2000
"O=C(CC12CC3CC(CC(C3)C1)C2)Nc1cccc2nc(C(=O)N3CCC(CO)CC3)cn12 [Compound 424, 2-adamantan-1-yl-N-(2-{[4-(hydroxymethyl)piperidin-1-yl]carbonyl}imidazo[1,2-a]pyridin-5-yl)acetamide]",–,< 2000
"O=C(CC12CC3CC(CC(C3)C1)C2)Nc1cccc2nc(C(=O)N3CCC(O)CC3)cn12 [Compound 426, 2-adamantan-1-yl-N-{2-[(4-hydroxypiperidin-1-yl)carbonyl]imidazo [1,2-a]pyridin-5-yl}acetamide]",–,< 2000
"CN(CCC(C)(C)O)C(=O)c1cn2c(NC(=O)CC34CC5CC(CC(C5)C3)C4)cccc2n1 [Compound 431, 5-[(adamantan-1-ylacetyl)amino]-N-(3-hydroxy-3-methylbutyl)-N-methylimidazo[1,2-a]pyridine-2-carboxamide]",–,< 2000
"CC(C)(CO)NC(=O)c1cn2c(NC(=O)CC34CC5CC(CC(C5)C3)C4)cccc2n1 [Compound 437, 5-[(adamantan-1-ylacetyl)amino]-N-(2-hydroxy-1,1-dimethylethyl)imidazo [1,2-a]pyridine-2-carboxamide]",–,< 2000
"O=C(CC12CC3CC(CC(C3)C1)C2)Nc1cccc2nc(C(=O)NC3(CO)CCCC3)cn12 [Compound 441, 5-[(adamantan-1-ylacetyl)amino]-N-[1-(hydroxymethyl)cyclopentyl]imidazo[1,2-a]pyridine-2-carboxamide]",–,< 2000
"O=C(NCC12CC3CC(CC(C3)C1)C2)c1cccc2nc(CS(=O)(=O)c3nnc[nH]3)cn12 [Compound 449, N-(adamantan-1-ylmethyl)-2-[(4H-1,2,4-triazol-3-ylsulfonyl)methyl] imidazo [1,2-a]pyridine-5-carboxamide]",–,< 2000
"CCOC(=O)C(C)(C)c1cn2c(C(=O)NCC34CC5CC(CC(C5)C3)C4)cccc2n1 [Compound 450, ethyl 2-{5-[(adamantan-1-ylmethyl)carbamoyl]imidazo[1,2-a]pyridin-2-yl}-2-methylpropanoate]",–,< 2000
"CCOC(=O)C(C)(C)c1cn2c(C(=O)N(C)CC34CC5CC(CC(C5)C3)C4)cccc2n1 [Compound 451, ethyl 2-{5-[(adamantan-1-ylmethyl)(methyl)carbamoyl]imidazo [1,2-a]pyridin-2-yl} -2-methyl-propanoate]",–,< 2000
"CCOC(=O)N1CCN(C(=O)c2cn3c(C(=O)NC[C@@H]4CC[C@H]5C[C@@H]4C5(C)C)cccc3n2)CC1 [Compound 452, ethyl 4-{[5-({[(1S,2R,5S)-6,6-dimethylbicyclo[3.1.1]hept-2-yl]methyl}carbamoyl)imidazo[1,2-a]pyridin-2-yl]carbonyl}piperazine-1-carboxylate]",–,< 2000
"CC1(C)[C@H]2CC[C@@H](CNC(=O)c3cccc4nc(C(=O)N5CCCC5)cn34)[C@@H]1C2 [Compound 454, N-{[(1S,2R,5S)-6,6-dimethylbicyclo[3.1.1]hept-2-yl]methyl}-2-(pyrrolidin-1-ylcarbonyl) imidazo[1,2-a]pyridine-5-carboxamide]",–,< 2000
